{"source": "patent US7049321B2", "about": "“Methods and pharmaceutical compositions for treatment of central and peripheral nervous system disorders and compounds useful therefor” (Israel Institute for Biological Research, priority 2002, dated 2006)", "key": {"[1]": {"biological_target": "M2 (human) (Homo sapiens, UniProt P08172)", "sequence (P08172 whole entry)": "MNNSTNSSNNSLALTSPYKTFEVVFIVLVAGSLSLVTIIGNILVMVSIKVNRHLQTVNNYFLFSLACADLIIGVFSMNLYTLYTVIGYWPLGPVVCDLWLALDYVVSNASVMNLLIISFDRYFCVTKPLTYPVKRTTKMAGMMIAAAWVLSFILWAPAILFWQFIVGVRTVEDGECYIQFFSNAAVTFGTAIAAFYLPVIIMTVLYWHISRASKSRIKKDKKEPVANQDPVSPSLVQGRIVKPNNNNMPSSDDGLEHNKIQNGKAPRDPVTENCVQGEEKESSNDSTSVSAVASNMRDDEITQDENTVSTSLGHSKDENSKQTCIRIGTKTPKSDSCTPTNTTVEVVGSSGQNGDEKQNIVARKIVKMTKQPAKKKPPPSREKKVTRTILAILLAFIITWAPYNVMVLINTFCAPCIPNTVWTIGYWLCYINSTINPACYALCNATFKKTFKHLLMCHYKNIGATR", "assay": "Binding study, M2 (human)", "conditions": "10 μm"}, "[2]": {"biological_target": "CYP1A2 (Homo sapiens, UniProt P05177)", "sequence (P05177 whole entry)": "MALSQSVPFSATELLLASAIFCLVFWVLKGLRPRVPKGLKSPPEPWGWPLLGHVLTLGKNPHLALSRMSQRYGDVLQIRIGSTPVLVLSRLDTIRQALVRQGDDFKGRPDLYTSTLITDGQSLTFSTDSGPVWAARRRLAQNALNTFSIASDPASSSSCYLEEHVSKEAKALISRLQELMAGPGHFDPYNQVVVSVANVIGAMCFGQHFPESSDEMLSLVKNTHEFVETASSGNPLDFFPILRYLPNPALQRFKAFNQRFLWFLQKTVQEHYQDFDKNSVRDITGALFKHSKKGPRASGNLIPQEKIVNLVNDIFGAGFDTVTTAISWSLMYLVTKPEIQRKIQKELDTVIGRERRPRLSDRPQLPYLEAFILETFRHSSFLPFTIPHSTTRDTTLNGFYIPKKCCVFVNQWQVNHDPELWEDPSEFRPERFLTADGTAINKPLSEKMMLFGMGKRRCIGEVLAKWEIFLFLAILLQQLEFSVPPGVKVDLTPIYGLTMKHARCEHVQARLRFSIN", "assay": "Cytochrome P450 inhibition, CYP1A2", "assay_type": "in vitro ADME", "conditions": "up to 10 μM", "protocol": "Cytochrome P450 activity can be an indicator for potential drug-drug interactions. AF292 was evaluated in a microtiter plate assay for P450 inhibition."}, "[3]": {"biological_target": "M3 (human) (Homo sapiens, UniProt P20309)", "sequence (P20309 whole entry)": "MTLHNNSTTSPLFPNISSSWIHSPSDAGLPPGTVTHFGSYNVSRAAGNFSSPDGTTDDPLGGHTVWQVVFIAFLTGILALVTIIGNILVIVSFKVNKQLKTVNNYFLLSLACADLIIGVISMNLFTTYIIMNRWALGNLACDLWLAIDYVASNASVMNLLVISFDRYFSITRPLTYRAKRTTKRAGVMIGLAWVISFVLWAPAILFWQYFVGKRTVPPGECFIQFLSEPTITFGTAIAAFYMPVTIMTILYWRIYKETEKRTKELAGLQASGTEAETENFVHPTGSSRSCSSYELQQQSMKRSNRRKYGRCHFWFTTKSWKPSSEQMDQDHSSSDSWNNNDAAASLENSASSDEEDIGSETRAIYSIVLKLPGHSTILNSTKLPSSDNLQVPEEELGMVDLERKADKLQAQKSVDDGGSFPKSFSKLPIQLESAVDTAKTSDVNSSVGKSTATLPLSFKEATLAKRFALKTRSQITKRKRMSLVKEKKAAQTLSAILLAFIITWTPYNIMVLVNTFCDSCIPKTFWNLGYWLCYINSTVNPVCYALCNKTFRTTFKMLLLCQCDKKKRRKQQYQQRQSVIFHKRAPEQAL", "assay": "Binding study, M3 (human)", "conditions": "10 μm"}, "[4]": {"system": "adenosine, adrenergic, angiotensin, BZD, bradykinin, CCK, dopamine, opiate, serotonin and other receptors, ion channels, NE transporter", "assay": "Binding panel of other receptors, channels and transporter (AF292)", "conditions": "10 μm"}, "[5]": {"biological_target": "T1, M3 mAChR (Homo sapiens, UniProt P20309)", "T1 construct": "expressed in transfected cells", "T1 sequence (P20309 whole entry)": "as above", "assay": "Arachidonic acid (AA) release, M3", "assay_type": "cell-based"}, "[6]": {"biological_target": "T2, M1 mAChR (Homo sapiens, UniProt P11229)", "T2 construct": "expressed in transfected cells", "T2 sequence (P11229 whole entry)": "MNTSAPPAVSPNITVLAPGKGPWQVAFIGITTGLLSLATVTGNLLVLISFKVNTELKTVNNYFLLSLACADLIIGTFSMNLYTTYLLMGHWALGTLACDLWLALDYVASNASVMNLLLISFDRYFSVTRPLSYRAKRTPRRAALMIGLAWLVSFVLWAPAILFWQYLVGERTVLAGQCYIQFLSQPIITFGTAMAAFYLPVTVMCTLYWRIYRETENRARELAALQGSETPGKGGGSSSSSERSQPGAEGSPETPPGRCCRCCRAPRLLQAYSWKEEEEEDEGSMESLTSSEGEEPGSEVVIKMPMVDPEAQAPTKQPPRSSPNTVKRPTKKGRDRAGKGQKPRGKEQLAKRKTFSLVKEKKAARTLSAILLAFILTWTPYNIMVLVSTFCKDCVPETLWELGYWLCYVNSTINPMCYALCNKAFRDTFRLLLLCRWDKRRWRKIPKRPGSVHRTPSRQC", "assay": "Arachidonic acid (AA) release, M1", "assay_type": "cell-based"}, "[7]": {"biological_target": "T3, M2 mAChR (Homo sapiens, UniProt P08172)", "T3 construct": "expressed in transfected cells; host or cells: 'modified cell cultures' giving a Ca increase; modification not described", "T3 sequence (P08172 whole entry)": "as the sequence (P08172 whole entry) above", "assay": "Intracellular Ca increase in modified cell cultures, M2", "assay_type": "cell-based", "conditions": "10^−9–10^−3M"}, "[8]": {"system": "mice with closed head injury", "assay": "Closed head injury in mice, neurological severity score", "assay_type": "in vivo", "conditions": "for Balance test (beam walk): 80% in control", "protocol": "Closed head injury (CHI) was induced in mice as described in Chen et al, J Neurotrauma, 15: 231–237, 1998. Neurological severity scores (NSS) were assessed using a battery of 10 parameters (10=worst outcome, 0=normal function). The compounds tested (1 mg compound/kg body weight) vs. placebo-treated animals were injected ip 5 min after CHI vs. placebo-treated animals. Treated mice were evaluated at 1 h, to determine the severity of injury, and at 24 and 48 h to determine recovery. The NSS was as follows: 1. […] 2."}, "[9]": {"assay": "Ex vivo brain penetration in mice (GC and binding)", "conditions": "for half-life: mice brain"}, "[10]": {"biological_target": "mAChR receptors, Rat Cortical (CTX) Membranes", "assay_type": "binding", "conditions": "read-out: Ki, QNB"}, "[11]": {"assay": "in vivo", "conditions": "rat"}, "[12]": {"conditions": "mouse, in vivo"}, "[13]": {"conditions": "rat, in vivo, po"}, "[14]": {"system": "rabbits with nbm lesions", "assay": "CSF and cortical Aβ in hypocholinergic (nbm-lesioned) rabbits", "assay_type": "in vivo, New Zealand White rabbits", "conditions": "4 weeks", "excerpt": "It is known that experimentally-induced cortical cholinergic denervation results in biochemical elevations of cortical Aβ concentrations and in histologic Aβ deposition (Beach et al, Neurosci Lett 283: 9–12, 2000), and that administration of muscarinic Ml-selective agents to normal animals decreases CSF AP concentrations {Beach et al Brain Res. 905: 220–223, 2001}.\nTwenty-eight female New Zealand White rabbits, about 2.5 kg each (young adults) were used. Twenty-one received lesions of the cholinergic nucleus basalis magnocellularis (nbm). The lesion was accomplished with unilateral i.c.v. injections of an immunotoxin consisting of the ribosomal toxin saporin conjugated to the monoclonal antibody ME20.4, which is directed against the low-affinity neurotrophin receptor, p75. The ME20.4 antibody is made against monkey p75 and also recognizes rabbit p75. The dose of immunotoxin was 32.4 μg in 12 μl; this was delivered to the right lateral ventricle 2 mm lateral to the bregma. Seven animals received i.c.v. injections of sterile normal saline (sham lesion). Animals which received the immunotoxin were divided into 3 groups of 7. […] Another group received physostigmine hemisalicylate in normal saline by s.c. osmotic pump at a daily dose of 3 mg/kg. The third group received twice-daily sterile saline s.c. injections. The animals which received a sham lesion were implanted with s.c. osmotic pumps filled with sterile normal saline. Animals were euthanized 4 weeks after surgery. […] Cerebrospinal fluid was taken from the cisterna magna of all animals at the time of sacrifice; the brain was removed and sliced coronally into 0.5 cm slices. […] The other slices were frozen on sheets of dry ice (the other slices are the non-fixed 0.5 cm coronal slices of cerebrum, brainstem and cerebellum)."}, "[15]": {"system": "ApoE", "assay": "ApoE synthesis and secretion in primary type 1 astrocytes", "assay_type": "cell-based, rat", "protocol": "Primary cultures of type 1 astrocytes were derived from the cortex of Sprague Dawley rats. The compounds tested were dissolved in the culture media and added to cells for 24, 48, 72 and 96 hrs. Media was then removed and kept frozen until ApoE protein levels were evaluated by immunoblot analysis as described in Poirier et al Neuroscience 55: 81–90 (1993). Alternatively the methods of Cedazo-Minuez et al [Neurosci 105: 651–661, 2001} may be employed."}, "[16]": {"biological_target": "muscarinic receptor", "assay": "[3H]OXO-M competition binding", "conditions": "rat cortex"}, "[17]": {"system": "cholesterol-fed rabbits", "assay": "Aβ immunoreactivity in cortex of hypercholesterolemic rabbits", "assay_type": "in vivo, New Zealand white rabbits", "conditions": "1 mg/kg, s.c., 10 weeks"}, "[18]": {"biological_target": "Serotonin, 5HT3 (Homo sapiens, UniProt P46098)", "sequence (P46098 24-478)": "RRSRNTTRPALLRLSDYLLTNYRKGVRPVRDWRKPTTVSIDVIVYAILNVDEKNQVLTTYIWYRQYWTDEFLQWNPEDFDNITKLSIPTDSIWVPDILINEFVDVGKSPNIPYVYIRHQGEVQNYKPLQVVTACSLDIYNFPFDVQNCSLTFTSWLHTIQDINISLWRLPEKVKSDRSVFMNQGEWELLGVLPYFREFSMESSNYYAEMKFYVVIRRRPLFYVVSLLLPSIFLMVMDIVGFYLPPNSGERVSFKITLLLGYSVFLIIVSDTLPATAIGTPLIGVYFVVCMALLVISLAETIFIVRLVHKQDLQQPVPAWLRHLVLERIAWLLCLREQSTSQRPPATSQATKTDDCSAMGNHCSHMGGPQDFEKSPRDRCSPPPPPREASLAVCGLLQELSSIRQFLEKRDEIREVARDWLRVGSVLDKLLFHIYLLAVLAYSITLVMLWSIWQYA", "assay": "Serotonin 5HT3 binding", "conditions": "at 10^−4 M"}, "[19]": {"assay": "Chronic toxicity up to 13 weeks, rat", "assay_type": "in vivo, Wistar rat"}, "[20]": {"system": "cyclin D1", "assay": "Cyclin D1 expression in rat hippocampal neurons", "assay_type": "cell-based", "conditions": "against Aβ (5 μM)-induced decrease", "protocol": "This study was performed in rat hippocampal primary cell cultures using the methods described by Garrido J L et al. (FASEB J 2002; 16:1982)."}, "[21]": {"conditions": "1 mg/kg ip 5 min after CHI, 1 h"}}, "note": "“Also recorded” adds a separate entry of the source. Like-named read-outs stand apart in the source and are kept apart here.", "data": [{"smiles": "CC[C@@H]1SC2(CCNCC2)NC1=O", "note": "[AF292, (S)-2-Ethyl-1-thia-4,8-diaza-spiro[4.5]decan-3-one]", "values": [{"measurement": "Binding, %", "setting": "[1]", "result": 61, "unit": "%"}, {"measurement": "Inhibition of CYP1A2", "setting": "[2]", "result": "did not induce significant inhibition"}, {"measurement": "Binding, %", "setting": "[3]", "result": 55, "unit": "%"}, {"measurement": "Binding to panel", "setting": "[4]", "result": "no binding at all"}, {"measurement": "AA release, M3 mAChR, agonist activity", "setting": "[5]", "result": "inactive as an agonist; also recorded: PI., AA: M3 mAChR: Not active as agonist"}, {"measurement": "AA release vs. CCh, M1 mAChR", "setting": "[6]", "result": "> 88", "unit": "%"}, {"measurement": "Agonist activity at M2", "setting": "[7]", "result": "inactive as an agonist; also recorded: M2 mAChR - no effects as agonist"}]}, {"smiles": "CC1=NCC2(CCN(C)CC2)S1", "note": "[AF150(S), 2,8-Dimethyl-1-thia-3,8-diaza-spiro[4.5]dec-2-ene]", "values": [{"measurement": "NSS", "setting": "[8]; [21]", "result": "8.00+/−0.21"}, {"measurement": "NSS", "setting": "[8]; 1 mg/kg ip, 24 h", "result": "4.30+/−0.26"}, {"measurement": "NSS", "setting": "[8]; 1 mg/kg ip, 48 h", "result": "2.90+/−0.3"}, {"measurement": "brain penetration time", "setting": "[9]; iv", "result": 1, "unit": "min"}, {"measurement": "MRT", "setting": "[9]; mouse, in vivo, 100 μmole/kg", "result": 50, "unit": "min"}, {"measurement": "half-life", "setting": "[9]; mouse, in vivo, iv, T1/2, first phase", "result": 21, "unit": "min"}, {"measurement": "half-life", "setting": "[9]; mouse, in vivo, iv, T1/2, second phase", "result": 53, "unit": "min"}]}, {"smiles": "CC[C@@H]1SC2(CCN(C)CC2)NC1=O", "note": "[AF267B, (S)-2-ethyl-8-methyl-1-thia-4,8-diaza-spiro[4.5]decan-3-one]", "values": [{"measurement": "Ki", "setting": "[10]", "result": "49.6 ± 9", "unit": "µM"}, {"measurement": "Kp", "setting": "[11]; female, iv, 1 mg/kg", "result": 1.32}, {"measurement": "Kp", "setting": "[11]; female, po, 2 mg/kg", "result": 1.25}, {"measurement": "Kp", "setting": "[11]; male, iv, 1 mg/kg", "result": 1.79}, {"measurement": "Kp", "setting": "[11]; male, po, 2 mg/kg", "result": 2.43}, {"measurement": "NSS", "setting": "[8]; [21]", "result": "7.89+/−0.26"}, {"measurement": "NSS", "setting": "[8]; 1 mg/kg ip, 24 h", "result": "3.67+/−0.24"}, {"measurement": "NSS", "setting": "[8]; 1 mg/kg ip, 48 h", "result": "2.89+/−0.26"}, {"measurement": "Balance test (beam walk)", "setting": "[8]; 24 h (3 cm)", "result": 22, "unit": "%"}, {"measurement": "Balance test (beam walk)", "setting": "[8]; 48 h (2 cm)", "result": 33, "unit": "%"}, {"measurement": "time detected in the brain after dosing", "setting": "[12]", "result": "2 to 240", "unit": "min"}, {"measurement": "% of the compound found in the brain (Cmax brain/Cmax plasma)", "setting": "[13]; female", "result": 16, "unit": "%"}, {"measurement": "% of the compound found in the brain (Cmax brain/Cmax plasma)", "setting": "[13]; male", "result": 25, "unit": "%"}, {"measurement": "CSF Aβ (4 kDa band)", "setting": "[14]; 1 mg/kg s.c. twice daily", "result": "noticeable decrease"}, {"measurement": "CSF sAPPα band intensity", "setting": "[14]; 1 mg/kg s.c. twice daily", "result": "no significant difference"}, {"measurement": "Histologic Aβ deposition, % of the lesioned, untreated group", "setting": "[14]", "result": 12, "unit": "%"}, {"measurement": "inhibition at 0.0001 µM", "setting": "[15]; Rattus norvegicus, Astrocyte, at 0.1 nM, read-out: Inhibition of ApoE production", "result": "60 to 80", "unit": "%"}, {"measurement": "ApoE production", "setting": "[15]; up to 96 hrs", "result": "inhibits the production of ApoE"}, {"measurement": "Ki", "setting": "[16]", "result": "1.62 ± 0.34", "unit": "µM"}, {"measurement": "Reduction of intensity of the immunoreactivity", "setting": "[17]", "result": "approximately 50%"}, {"measurement": "Reduction of number of neurons expressing Aβ immunoreactivity", "setting": "[17]", "result": "25–30%"}, {"measurement": "inhibition at 100 µM", "setting": "[18]", "result": 51.3, "unit": "%"}, {"measurement": "Dose at which effects are seen", "setting": "[19]", "result": "> 40", "unit": "mg/kg"}, {"measurement": "AA release vs. CCh, M1 mAChR", "setting": "[6]", "result": 100, "unit": "%"}, {"measurement": "cyclin D1, increase vs. control", "setting": "[20]", "result": 50, "unit": "%"}]}]}
